Laboratory results as given in patent US20250074911A1, “MACROCYCLIC BTK INHIBITORS” (Crossfire Oncology Holding B.V., priority 2021, published 2025).

Key:
[1] = biological target: full-length BTK C481S enzyme (Homo sapiens (Human), UniProt Q06187, C481S); assay: Biochemical kinase assay BTK C481S (IMAP)
Procedure, shortened: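 IC50 values come from IMAP fluorescence polarization after quenching with progressive binding solution. The reaction ran 2 h at room temperature in the dark with 1.2 nM full-length C481S enzyme, 7 μM ATP and 50 nM fluorescein-labelled MBP-derived peptide, following a 1 h dark pre-incubation of compound with enzyme.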

[2] = tested on: wt-TMD8 diffuse large B-cell lymphoma cells; assay: Cell proliferation assay wt-TMD8 (ATPlite, 120 hours); format: cell-based; settings: B-cell; wt-TMD8 cells, 120 hours, ATPlite; read-out: IC50 wt-TMD8
Procedure, shortened: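 Readout is percentage growth from ATPlite 1Step luminescence after 5 days (120 h) compound treatment of wt-TMD8 lymphoma cells (1600/well, RPMI-1640 + 10% FBS). Time-zero signal separates growth inhibition from cell kill; 0.3% DMSO wells without compound define maximal growth.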

[3] = tested on: wt-REC-1 mantle cell lymphoma cells; assay: Cell proliferation assay wt-REC-1 (ATPlite, 72 hours); format: cell-based; settings: 72 h; read-out: IC50 wt-REC-1
Procedure, shortened: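 Luminescent viability read over 72 h, start-of-incubation signal recorded separately to separate growth from cell death. Percentage growth referenced to compound-free 0.3% DMSO wells; IC50 from 4-parameter logistic fit.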

REC-1 T474I cell lines = assay: Cell proliferation assay REC-1 BTK T474I knock-in cells (ATPlite, 72 hours); format: cell-based; settings: Homo sapiens, Rec1; 72 hours; read-out: IC50 REC-1 T474I
Procedure, shortened: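 REC-1 cells carrying CRISPR knock-in mutant BTK, single-cell cloned and sequence-confirmed, were exposed to compound for 72 h and read by ATPlite luminescence. Percentage growth was calculated against the signal at the start of incubation and against untreated 0.3% DMSO wells as maximum growth.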

BTK T474I = BTK T474I (Homo sapiens (Human), UniProt Q06187, T474I); assay: Binding kinetics measurements (Surface Plasmon Resonance) on BTK T474I; settings: for Tau (h) BTK T474I (Act): target residence time, SPR; for Kd: binding affinity by Surface Plasmon Resonance (SPR)
Experimental: (§1) Binding kinetics measurements on wt-BTK, BTK […], BTK […], BTK […] and BTK […] (Surface Plasmon Resonance) Streptavidin-coated chips (Cat. No. BR100531), disposables and maintenance kits for Biacore were purchased from Cytiva (Eindhoven, The Netherlands). […] Remaining streptavidin was blocked with biocytin. Immobilization was performed at 4° C. Subsequent assay steps were conducted at 22° C. After changing buffer to Biacore buffer with 1% (v/v) dimethylsulfoxide (DMSO), a pre-run was performed for a period of at least 30 min at a flow rate of 30 μl/min to obtain a stable surface. The kinetic constants of the compounds were determined with single cycle kinetics with five consecutive injections with an increasing compound concentration with ranges of 3.16-316 nM. […] To circumvent problems of mass transport limitation, a flow rate of 30 μl/min was used. A blank run with the same conditions was performed before the compound was injected. The SPR sensorgrams were analyzed with Biacore Evaluation Software by using a method of double referencing. First the reference channel was subtracted from the channel containing immobilized protein. Subsequently, the reference curve obtained with buffer injections was subtracted. […] Compounds that bound according to an induced fit model were fitted with a two-state reaction model. The kinetic constants (ka, […], KD) of duplicates were geometrically averaged. […] Target residence for an induced fit model was calculated as described (Tummino and Copeland, 2008).

wt-BTK = wt-BTK (Homo sapiens (Human), UniProt Q06187); assay: Binding kinetics measurements (Surface Plasmon Resonance) on wt-BTK; settings: for Tau (h) wt-BTK (Act): target residence time, SPR; for Kd: binding affinity by Surface Plasmon Resonance (SPR)
Experimental: as §1

[4] = biological target: full-length wt-BTK enzyme (Homo sapiens (Human), UniProt Q06187); assay: Biochemical kinase assay wt-BTK (IMAP)
Procedure, shortened: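 Compound and enzyme (final 1.2 nM) were pre-incubated for 1 h at RT, after which the reaction was started with 4 μM ATP plus 50 nM fluorescein-MBP substrate peptide. After 2 h in the dark, the IMAP progressive binding reagent stopped the reaction, and phosphorylation was read by fluorescence polarization.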

Chain of BTK T474I (Q06187 whole entry T474I): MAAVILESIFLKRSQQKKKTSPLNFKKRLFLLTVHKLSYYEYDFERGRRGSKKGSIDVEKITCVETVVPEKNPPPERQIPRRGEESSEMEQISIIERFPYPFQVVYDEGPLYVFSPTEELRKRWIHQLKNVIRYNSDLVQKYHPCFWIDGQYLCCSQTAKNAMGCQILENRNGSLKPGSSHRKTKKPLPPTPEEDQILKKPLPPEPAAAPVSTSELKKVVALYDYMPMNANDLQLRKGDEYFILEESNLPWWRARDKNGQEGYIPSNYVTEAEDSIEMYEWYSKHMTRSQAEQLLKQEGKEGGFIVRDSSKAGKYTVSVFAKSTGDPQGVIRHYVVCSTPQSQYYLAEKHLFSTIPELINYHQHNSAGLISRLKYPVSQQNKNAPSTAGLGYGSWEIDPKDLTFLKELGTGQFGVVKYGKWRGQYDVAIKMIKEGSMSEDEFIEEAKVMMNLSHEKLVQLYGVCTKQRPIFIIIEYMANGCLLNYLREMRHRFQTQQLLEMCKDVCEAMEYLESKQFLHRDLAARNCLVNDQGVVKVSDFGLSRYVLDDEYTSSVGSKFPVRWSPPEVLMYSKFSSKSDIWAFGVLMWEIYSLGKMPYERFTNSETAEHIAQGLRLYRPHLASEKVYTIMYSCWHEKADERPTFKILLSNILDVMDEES
Chain of full-length BTK C481S enzyme (Q06187 whole entry C481S): as the sequence (Q06187 whole entry T474I) above, with I474T, C481S counted along it
Chain of wt-BTK (Q06187 whole entry): as the sequence (Q06187 whole entry T474I) above, with I474T counted along it
Chain of full-length wt-BTK enzyme (Q06187 whole entry): as the sequence (Q06187 whole entry T474I) above, with I474T counted along it

Row | Structure (SMILES) | IC50 [1] | IC50 [2] | IC50 [3] | IC50 (REC-1 T474I cell lines) | Tau (h) BTK T474I (Act) (BTK T474I) | Tau (h) wt-BTK (Act) (wt-BTK) | IC50 [4] | Kd (wt-BTK) | Kd (BTK T474I)
1 | N#Cc1ccnc(NC(=O)c2ccc(-c3nn4c5c(cnc(N)c35)/C=C/CCOCCC(=O)N[C@@H]3CC[C@@H]4C3)cc2)c1 [Example 185] | < 5 nM | < 100 nM | < 100 nM | < 100 nM | 1.26 h | 10.79 h | < 5 nM | – | –
2 | N#Cc1ccnc(NC(=O)c2ccc(-c3nn4c5c(cnc(N)c35)/C=C/CCN3CC[C@H]3C(=O)N[C@@H]3CC[C@@H]4C3)cc2)c1 [Example 186] | < 5 nM | < 100 nM | < 100 nM | < 100 nM | 0.93 h | >24 h | < 5 nM | – | –
3 | COc1cc(-c2nn3c4c(cnc(N)c24)/C=C/COCCC(=O)N[C@@H]2CCC[C@@H]3C2)ccc1C(=O)Nc1cc(C(F)(F)F)ccn1 [Example 188] | < 5 nM | < 100 nM | < 100 nM | < 100 nM | >24 h | – | < 5 nM | – | –
4 | Nc1ncc2c3c1c(-c1ccc(C(=O)Nc4cc(F)ccn4)cc1)nn3[C@@H]1CCC[C@H](C1)NC(=O)CCOC/C=C/2 [Example 189] | < 5 nM | < 100 nM | 1000 to 10000 nM | 500 to 10000 nM | 1.56 h | 4.17 h | < 5 nM | < 5 nM | –
5 | Nc1ncc2c3c1c(-c1ccc(C(=O)Nc4cc(C(F)(F)F)ccn4)cc1)nn3[C@@H]1COC[C@H](C1)NC(=O)CCOC/C=C/2 [Example 192] | < 5 nM | < 100 nM | < 100 nM | < 100 nM | 1.40 h | 3.61 h | < 5 nM | < 5 nM | < 2 nM
6 | Nc1ncc2c3c1c(-c1ccc(C(=O)Nc4cc(F)ccn4)cc1)nn3[C@@H]1CCC[C@H](C1)NC(=O)CCOCC/C=C/2 [Example 193] | < 5 nM | < 100 nM | < 100 nM | < 100 nM | >24 h | 6.70 h | < 5 nM | < 5 nM | < 2 nM
7 | COc1cc(-c2nn3c4c(cnc(N)c24)/C=C/CCOCCC(=O)N[C@@H]2CCC[C@@H]3C2)ccc1C(=O)Nc1cc(C(F)(F)F)ccn1 [Example 195] | < 5 nM | < 100 nM | < 100 nM | < 100 nM | 0.73 h | 3.73 h | < 5 nM | < 5 nM | –
8 | Nc1ncc2n3c(nc(-c4ccc(C(=O)Nc5cc(C(F)(F)F)ccn5)cc4)c13)[C@@H]1CC[C@H](C1)NC(=O)CCCCC/C=C/2 [Example 203] | < 5 nM | < 100 nM | < 100 nM | < 100 nM | 4.17 h | 5.73 h | < 5 nM | – | –
9 | COc1ccc(F)cc1C(=O)NCc1ccc(-c2nc3n4c(cnc(N)c24)/C=C/CCN(C(C)=O)CC(=O)N[C@@H]2CC[C@@H]3C2)cc1 [Example 221] | < 5 nM | < 100 nM | 1000 to 10000 nM | 500 to 10000 nM | – | – | < 5 nM | – | –
10 | Nc1ncc2n3c(nc(-c4ccc(C(=O)Nc5cc(C6CC6)ccn5)cc4)c13)[C@@H]1CC[C@H](C1)NC(=O)CCOCC/C=C/2 [Example 223] | < 5 nM | < 100 nM | < 100 nM | 100 to 500 nM | – | 2.52 h | < 5 nM | – | –
11 | Nc1ncc2c3c1c(-c1ccc(C(=O)Nc4cc(C(F)(F)F)ccn4)cc1)nn3[C@@H]1CN[C@H](C1)C(=O)NCCCCC/C=C/2 [Example 225] | < 5 nM | – | < 100 nM | 500 to 10000 nM | 1.19 h | 3.59 h | < 5 nM | – | –
12 | CC(=O)N1C[C@@H]2C[C@@H]1C(=O)NCCCCC/C=C/c1cnc(N)c3c(-c4ccc(C(=O)Nc5cc(C(F)(F)F)ccn5)cc4)nn2c13 [Example 226] | < 5 nM | – | 1000 to 10000 nM | 500 to 10000 nM | – | 2.76 h | < 5 nM | – | –
